Entries after “also recorded” stand apart in the source; their conditions may differ.
Assays:
[1] = system: conscious, restrained SHRs; assay: Hemodynamic study in conscious, restrained SHRs; type: in vivo, spontaneously hypertensive rats
Description: The in vivo hemodynamic activity of nepicastat was further assessed in conscious, restrained SHRs, a model having high sympathetic drive to cardiovascular tissues. Hemodynamic study in SHRs. Male SHRs (15-16 week old) were used in the study. The animals were lightly anesthetized with ether and the left femoral artery and vein were catheterized for measurement of blood pressure and drug administration, respectively. The animals were placed in restrainers and allowed to recover for 30-40 min. After obtaining baseline measurements, the animals were treated, orally, with either vehicle or the appropriate dose of nepicastat and hemodynamic parameters were continuously recorded for 4 h. The animals were then anesthetized with pentobarbital, placed on a heating pad (37° C.) and ventilated with a Harvard rodent ventilator. After administration of atropine (1 mg/kg, iv) and tubocurarine (1 mg/kg, iv), the animals were pithed through the orbit of the eye with a stainless steel rod. The […] rod was stimulated electrically with 1 ms pulses of 80V at different frequencies (0.15, 0.45, 1.5, 5, 15 Hz) to obtain frequency-pressor response curves. […] The animals were placed in restrainers and allowed to recover for 30-40 minutes. After obtaining baseline measurements, the animals were treated, orally, with either vehicle or the appropriate dose of nepicastat and hemodynamic parameters were continuously recorded for 4 h.

[2] = system: spontaneous hypertensive rats; assay: SCH-23390 pretreatment study in restrained SHRs; type: in vivo; conditions: nepicastat 10 mg/kg po
Description: Male, spontaneous hypertensive rats (280-345 g; Charles River Labs, Kingston, N.Y.) were fasted overnight then anesthetized with ether. A femoral artery and femoral vein were cannulated with PE50 tubing for recording of blood pressure and administration of compounds, respectively. Animals were then placed in MAYO restrainers and their feet loosely taped to the restrainer. Heparinized saline (50 units sodium heparin/ml) was used to maintain patency of each cannula throughout the experiment. The following parameters were continuously recorded using Modular Instruments MI^2 BioReport™ software installed on an IBM personal computer: mean arterial pressure (MAP), heart rate (HR), and the change from baseline for each parameter at specified time points in the experiment.
All compounds were dissolved on the day of use. Nepicastat was dissolved in deionized water (vehicle) to a free base concentration of 1 mg/ml. Oral dosing volume for nepicastat or vehicle was 10 ml/kg. SCH-23390 was dissolved in saline (vehicle) to a free base concentration of 0.2 mg/ml. […] or saline were administered intravenously as a bolus in a volume of 1.0 ml/kg followed by 0.2 ml flush of isotonic saline.
Following surgical preparation, each animal was allowed a minimum one hour recovery period. Animals were randomly assigned to four treatment groups: vehicle (iv)/vehicle (po); vehicle (iv)/nepicastat (po); SCH-23390 (iv)/vehicle (po); or SCH-23390 (iv)/nepicastat (po). Once animals were stabilized (minimum one hour), baseline blood pressure and heart rate was determined by taking an average of each parameter over a 15 min period of time. Once baseline blood pressure and heart rate were established, animals were dosed intravenously with either SCH-23390 (200 μg/kg) or vehicle (saline, 1 ml/kg). Fifteen minutes later, animals were orally dosed with either nepicastat (10 mg/kg) or vehicle (deionized water, 10 ml/kg).
Recorded parameters were measured 15 min prior to intravenous dosing to establish baseline blood pressure and heart rate. Recorded parameters were then measured at 5, 10, and 15 min following intravenous administration of SCH-23390 or vehicle. Following oral administration of nepicastat or vehicle, recorded parameters were measured at 15, 30, 60, 90, 120, 150, 180, 210, and 240 min.
At the end of the experiment, each animal was anesthetized with halothane and euthanized via decapitation. The cortex, left ventricle (apex), and mesenteric artery were dissected out, weighed, and fixed in 0.4 M perchloric acid. Tissues were then frozen in liquid nitrogen and stored at −70° C. Biochemical analysis are performed on these tissues at a later date to determine catecholamine levels including dopamine and norepinephrine levels. Blood pressure and heart rate were analyzed separately. The change from baseline for blood pressure and heart rate were analyzed by an analysis of variance (ANOVA) with effects for treatment, time, and their interaction. This analysis was performed both for the post-iv time period and for the post-oral time period. Further analyses were performed at each time by an ANOVA with a main effect for […]. Pairwise comparisons were performed following each ANOVA by Fisher's LSD strategy with a Bonferroni correction when the overall treatment effect was not significant.
An additional analysis was performed to compare the baseline means of each treatment group by an ANOVA with a main effect for treatment and subsequent pairwise comparisons. […]

## Cl.NCc1c[nH]c(=S)n1[C@H]1CCc2c(F)cc(F)cc2C1 [nepicastat, (S)-5-Aminomethyl-1-(5,7-difluoro-1,2,3,4-tetrahydronaphth-2-yl)-2,3-dihydro-2-thioxo-1H-imidazole hydrochloride]
[1]; 10 mg/kg
  decrease in heart rate: 9.8%
[1]; 10 mg/kg po
  maximal decrease in mean blood pressure: 53±4 mmHg
  reduction in mean blood pressure relative to vehicle control: 33%
[1]; 10 mg/kg, SHRs
  decrease in blood pressure 4 hours after dosing: −46 mmHg
[1]; 30 mg/kg
  decrease in heart rate: 10.5%
[1]; 0.3-30 mg/kg po, up to 4 h, hydrochloride
  effect on mean arterial pressure: significant (p<0.05) lowering of mean arterial pressure; also recorded: significant antihypertensive effect
[1]; 10 and 30 mg/kg po
  effect on heart rate: significantly reduced heart rate
[1]; acute oral administration
  duration of antihypertensive effects: > 4 h
[1]; po
  time to plateau of the antihypertensive response: 3 to 4 h
[2]; SCH-23390 200 μg/kg iv
  heart rate vs vehicle: did not decrease the heart rate as much as observed in vehicle treated animals
[2]
  mean arterial pressure: significant decrease (p<0.05) in mean arterial pressure
  time post dose by which MAP decrease was significant: ≤ 30 min
[2]; SCH-23390 iv, hydrochloride
  antihypertensive effect of nepicastat after pretreatment with SCH-23390: not attenuated; also recorded: did not significantly attenuate
